Results published in ChEMBL document CHEMBL3397030, “Synthesis and biological evaluation of 3-phenyl-3-aryl carboxamido propanoic acid derivatives as small molecule inhibitors of retinoic acid 4-hydroxylase (CYP26A1)” (Bioorg Med Chem, 2015).
Calls of active or inactive are those of the source. The calls are words filed in the database; no cut-off is given here.

What was measured:
[1] = tested on: HL-60; test: Induction of CYP26A1 expression in human HL60 cells at 0.1 uM after 72 hrs; format: functional, cell-based
[2] = Growth inhibition of human HL60 cells at 0.1 uM after 48 hrs by MTT assay; format: functional; conditions: HL-60, 48 h, read-out: GI
[3] = tested on: HL-60; test: Induction of cell differentiation of human HL60 cells at 0.1 uM after 72 hrs by NBT dye based assay; format: functional
[4] = biological target: T1, Cytochrome P450 26A1 (Homo sapiens, UniProt O43174); test: Inhibition of CYP26A1 in ATRA-induced human HL60 cell microsomes incubated for 30 mins using ATRA and NADPH by HPLC method; format: cell-based, HL-60
T1 sequence (O43174 whole entry): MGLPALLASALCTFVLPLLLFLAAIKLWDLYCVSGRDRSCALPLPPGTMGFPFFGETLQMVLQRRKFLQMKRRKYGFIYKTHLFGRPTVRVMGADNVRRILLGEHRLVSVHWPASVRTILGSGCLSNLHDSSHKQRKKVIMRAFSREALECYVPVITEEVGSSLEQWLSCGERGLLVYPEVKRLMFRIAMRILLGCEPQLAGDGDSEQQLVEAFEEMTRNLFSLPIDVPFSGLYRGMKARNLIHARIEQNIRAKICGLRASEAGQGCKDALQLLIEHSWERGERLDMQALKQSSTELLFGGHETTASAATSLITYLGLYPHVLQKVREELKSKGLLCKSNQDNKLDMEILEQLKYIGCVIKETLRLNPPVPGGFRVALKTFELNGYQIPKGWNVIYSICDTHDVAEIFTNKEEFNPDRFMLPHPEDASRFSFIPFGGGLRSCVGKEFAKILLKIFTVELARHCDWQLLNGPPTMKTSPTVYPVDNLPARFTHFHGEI

[5] = tested on: HL-60; test: Induction of cell differentiation of human HL60 cells at 10 uM after 72 hrs by NBT dye based assay; format: functional
[6] = Growth inhibition of human HL60 cells at 10 uM in presence of 0.1 uM ATRA after 48 hrs by MTT assay; format: functional, HL-60
[7] = tested on: HL-60; test: Induction of cell differentiation of human HL60 cells at 10 uM in presence of 0.1 uM ATRA after 72 hrs by NBT dye based assay; format: functional
[8] = Growth inhibition of human HL60 cells at 10 uM after 48 hrs by MTT assay; format: functional; conditions: HL-60, 48 h, read-out: GI

Compound	IC50 [4] [µM]	Activity [1]	inhibition of growth at 0.1 µM [2] [%]	Activity [3] [%]	Activity [5] [%]	growth inhibition (GI) [6] [%]	Activity [7] [%]	inhibition of growth at 10 µM [8] [%]
CC1=C(/C=C/C(C)=C/C=C/C(C)=C/C(=O)O)C(C)(C)CCC1 [TRETINOIN]		Active	23.8	26.07				
Cc1nn(-c2ccccc2)c(Cl)c1C(=O)NC(CC(=O)O)c1cccc(Br)c1 (configuration not stated)	1.87				0	56.15	48.51	6.16
Clc1cccc(C(c2ccc3[nH]cnc3c2)n2ccnc2)c1 (configuration not stated) [LIAROZOLE]					0	48.26	46.71	15.4

Now from value to compound, other results behind:

IC50 [4] [µM]	Compound	Activity [1]	inhibition of growth at 0.1 µM [2] [%]	Activity [3] [%]	Activity [5] [%]	growth inhibition (GI) [6] [%]	Activity [7] [%]	inhibition of growth at 10 µM [8] [%]
3.09	Cc1ccc(C(CC(=O)O)NC(=O)c2cc(C)oc2C)cc1 (configuration not stated)				0	44.85	42.62	5.85
2.73	Cc1cc(C(=O)NC(CC(=O)O)c2ccc(Cl)cc2)c(C)o1 (configuration not stated)				0	49.53	46.61	10.3
